Data as given in patent publication US20250074880A1, “NOVEL QUINOLINE DERIVATIVES AND USES THEREOF” (Istituto Europeo di Oncologia S.r.l., priority 2021, published 2025).
Where two headings read alike, the source gives them in different places.

How the values were obtained:
[1] = system: MCF-7 primary breast adenocarcinoma cells; conditions: 10 μM, versus 0.1% DMSO, FIG. 7A-C
Experimental: The MCF-7 cells were seeded in six-well plates (300,000 cells/well), grown overnight (37° C., 5% CO2) during which they attached to the bottom plate. […] The cells were then fixated (10 min) with ice cold 100% methanol, washed twice with phosphate-buffered saline (PBS), and incubated with 3% (w/v) bovine serum albumin (BSA) in PBS containing 0.05% Tween 20 (room temperature, 1 h). Next, the cells were incubated (room temperature, 1 h) with human CREST patient serum (1:30 dilution, Antibodies Incorporated) to mark kinetochores, and mouse monoclonal anti-α-tubulin antibody (clone B512, 1:1000 dilution, Sigma) to mark microtubules, followed by incubation (room temperature, 30 min) with a secondary anti-mouse or anti-human IgG antibody that was conjugated either to chromophore AF647 (1:500, Invitrogen), AF488 (1:500 dilution, Invitrogen). DNA was stained with 0.1 μg/ml 4,6-diamidino-2-phenylindole (DAPI, Sigma Aldrich) and coverslips were mounted with Prolong Diamond Antifade (P36965, Invitrogen). To perform immunofluorescence imaging, the cells were captured on a confocal Nikon Eclipse Ti2-Spinning Disc V2 microscope (100× objective, NA=1.45, Nikon) equipped with an Andor iXon Ultra EMCCD camera. Images, acquired as Z-stacks (0.15 μm for each stack; about 80 stacks for mitotic cells) and analysed with ImageJ (Fiji) v1.53f51.

[2] = system: MCF-7 primary breast adenocarcinoma cells; conditions: for cell proliferation (summary statement): combined experimental findings
Experimental: The MCF-7 cells were seeded in six-well plates (150,000 cells/well), grown overnight (37° C., 5% CO2) during which they attached to the bottom plate. The cells were then treated with compound D5 (RS5982) at concentrations of 10 μM, 20 μM or 50 μM. In the negative and positive control experiments, the cells were treated with 0.25% DMSO and 1 μM of Paclitaxel, respectively. After 24 h and 48 h of incubation, the cells were pulse-labeled (30 min) with 10 μM of bromodeozyuridine (BrdU; stains actively replicating DNA), collected, and fixed with 95% ethanol. Next, the cells were treated with a BrdU-specific antibody (1:5 dilution, BD Bioscience 347580) and incubated for 1 h at room temperature. The secondary antibody used was AF488 Donkey anti mouse (dilution 1:50), which was incubated for 1 h at room temperature. Total DNA was stained overnight (4° C.) with 2.5 μg/ml of propidium iodide. Fluorescence-activated cell sorting (FACS) analysis next allowed the quantification of cells occurring in various stages of the cell cycle. Specifically, measurements were performed using MACSquant FACS (Miltenyi Biotech), and analysed by FlowJo software (Ashland). The G2/M cell cycle stage was evaluated by DNA content and negativity for BrdU incorporation, to avoid an overlap between G2 and late S-phase. The number of G2/M phase cells were plotted relative to that measured in the presence of 0.25% DMSO at each time point (fold change values=1).

[3] = system: MCF-7 primary breast adenocarcinoma cells
Experimental: The MCF-7 cells were seeded in six-well plates (150,000 cells/well), grown overnight (37° C., 5% CO2) during which they attached to the bottom plate. The cells were then treated with compound D5 (RS5982) or compound RS6008 at concentrations of 10 μM. 20 μM or 50 μM. In the negative and positive control experiments, the cells were treated with 0.25% DMSO and 1 μM of Paclitaxel, respectively. […] Finally, for each time point, the viable cell counts were plotted relatively to the number of viable cells measured in the presence of 0.25% DMSO.

[4] = biological target: Ndc80 kinetochore subcomplex-MT binding (Homo sapiens, UniProt O14777); conditions: Ndc80 subcomplex:MTs 5 nM:10 nM; FIG. 3
Sequence of Ndc80 kinetochore subcomplex-MT binding (O14777 whole entry): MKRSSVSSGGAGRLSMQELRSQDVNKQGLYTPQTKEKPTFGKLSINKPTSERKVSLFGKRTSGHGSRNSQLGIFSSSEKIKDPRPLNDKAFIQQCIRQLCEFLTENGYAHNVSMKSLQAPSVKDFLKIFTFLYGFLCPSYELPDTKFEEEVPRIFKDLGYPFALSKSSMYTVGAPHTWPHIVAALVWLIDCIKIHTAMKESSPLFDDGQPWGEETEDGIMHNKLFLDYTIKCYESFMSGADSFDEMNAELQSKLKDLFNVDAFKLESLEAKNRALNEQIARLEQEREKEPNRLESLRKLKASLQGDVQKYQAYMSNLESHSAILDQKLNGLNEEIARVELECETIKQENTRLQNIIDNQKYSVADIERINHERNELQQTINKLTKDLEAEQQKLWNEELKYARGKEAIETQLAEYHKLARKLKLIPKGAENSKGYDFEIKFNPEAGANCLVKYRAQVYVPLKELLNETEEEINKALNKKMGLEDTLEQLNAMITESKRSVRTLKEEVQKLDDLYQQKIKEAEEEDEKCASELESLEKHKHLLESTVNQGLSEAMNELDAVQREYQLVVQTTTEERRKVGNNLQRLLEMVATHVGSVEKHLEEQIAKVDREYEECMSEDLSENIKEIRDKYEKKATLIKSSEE
Sequence of Ndc80 kinetochore subcomplex-MT binding (Q9BZD4 whole entry partner): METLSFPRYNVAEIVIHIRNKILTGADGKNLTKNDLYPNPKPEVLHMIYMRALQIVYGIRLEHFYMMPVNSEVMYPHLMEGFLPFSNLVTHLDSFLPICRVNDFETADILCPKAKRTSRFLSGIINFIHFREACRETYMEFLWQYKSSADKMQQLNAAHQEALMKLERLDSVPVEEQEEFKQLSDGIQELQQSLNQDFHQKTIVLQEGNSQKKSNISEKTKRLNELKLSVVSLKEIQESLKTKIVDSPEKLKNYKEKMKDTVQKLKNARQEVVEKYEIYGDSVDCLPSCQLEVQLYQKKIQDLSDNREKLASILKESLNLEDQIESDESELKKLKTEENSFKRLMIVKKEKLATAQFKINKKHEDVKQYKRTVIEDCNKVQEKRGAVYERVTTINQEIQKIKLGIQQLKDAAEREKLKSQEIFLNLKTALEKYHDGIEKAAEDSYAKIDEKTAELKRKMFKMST
Sequence of Ndc80 kinetochore subcomplex-MT binding (Q8NBT2 whole entry partner): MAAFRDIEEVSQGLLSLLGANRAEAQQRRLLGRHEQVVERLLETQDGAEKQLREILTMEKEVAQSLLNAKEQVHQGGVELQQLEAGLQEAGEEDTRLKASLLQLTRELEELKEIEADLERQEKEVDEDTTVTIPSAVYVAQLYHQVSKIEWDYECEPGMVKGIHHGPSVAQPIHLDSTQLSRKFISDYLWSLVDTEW
Sequence of Ndc80 kinetochore subcomplex-MT binding (Q9HBM1 whole entry partner): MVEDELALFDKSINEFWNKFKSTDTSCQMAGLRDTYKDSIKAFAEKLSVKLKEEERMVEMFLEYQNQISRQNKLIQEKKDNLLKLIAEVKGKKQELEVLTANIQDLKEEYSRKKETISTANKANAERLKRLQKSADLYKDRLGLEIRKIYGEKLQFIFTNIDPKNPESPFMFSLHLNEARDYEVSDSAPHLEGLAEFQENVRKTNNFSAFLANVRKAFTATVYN
From the text: Next, the Ndc80 kinetochore subcomplex was bound to AlphaScreen® acceptor beads. In parallel, biotinylated and taxol-stabilised MTs were bound to streptavidin-covered AlphaScreen® donor beads. […] A decrease in light emission is caused by abrogated Ndc80 kinetochore subcomplex-MT binding.
The recombinant His6-tagged Ndc80 kinetochore subcomplex was bound to AlphaScreen® (Amplified Luminescent Proximity Homogeneous Assay Screen) Ni^2+-acceptor beads. In parallel, biotinylated and taxol-stabilised MTs (Cytoskeleton) were bound to streptavidin-covered AlphaScreen® donor beads (Perkin Elmer). […] A decrease in or loss of light emission is caused by a reduced or total loss of Ndc80 kinetochore subcomplex-MT binding.

Structure (SMILES)	anomalous kinetochore activity (unbound sister chromatids, lagging chromosomes) compared to control cells [1]	cell proliferation (summary statement) [2]	cell viability ([3]; 10, 20 or 50 μM, 24, 48, 72 h, relative to 0.25% DMSO, FIG. 4)	inhibition in the biochemical AlphaScreen binding assay [4] [%]	arrest at mitotic entry (G2/M phase) ([2]; 10, 20 or 50 μM, 24 and 48 h, relative to 0.25% DMSO, FIG. 5)	cell viability ([3]; 50 μM, FIG. 6)
Cc1ccc(-c2cc(C(=O)Nc3ccc(C(F)(F)F)cc3C(F)(F)F)c3ccccc3n2)o1 [RS6648, N-(2,4-bis(Trifluoromethyl)phenyl)-2-(5-methylfuran-2-yl) quinoline-4-carboxamide]	increase in anomalous kinetochore activity	delayed cell proliferation	–	–	–	–
Cc1ccc(NC(=O)c2cc(-c3ccc(C)o3)nc3ccccc23)c(C)c1 [D5, N-(2,4-Dimethylphenyl)-2-(5-methylfuran-2-yl) quinoline-4-carboxamide]	increase in anomalous kinetochore activity	delayed cell proliferation	dose (D5)-dependent decrease in cell viability	59.93	enhanced arrest at mitotic entry (G2/M phase)	–
Cc1ccc(NC(=O)c2cc(-c3ccco3)nc3ccccc23)c(C)c1 [RS6008, N-(2,4-Dimethylphenyl)-2-(furan-2-yl) quinoline-4-carboxamide]	–	delayed cell proliferation	–	–	–	strong decrease in cell viability
